# Literature values in patent US7261907B2, “Compositions for the treatment of neurological disorders” (priority 2001, dated 2007).
# Counter-ions that a name gives are not always drawn.
# Test system: nicotine and cocaine addiction
# Settings: in vivo
smiles,measurement,value
CC(NC(C)(C)C)C(=O)c1cccc(Cl)c1 (stereo not shown) [bupropion hydrochloride],effectiveness in treating nicotine and cocaine addiction,moderately effective
